Results as given in patent publication EP0751768B1, “ANTI-VIRAL AND ANTI-CANCER AGENT” (Radopath Pharmaceuticals International Limited, priority 1994, dated 1995).
Where “and” joins values, the source holds several entries; their conditions need not be identical. Identical values can stand only once. Like-named read-outs stand apart in the source and are kept apart here.

Assays:
[1] = system: HIV-1RF; assay: microbe, parasite or virus in culture; type: cell-based, human immunodeficiency virus HIV-1RF; conditions: read-out: IC50
[2] = system: HIV-I IIIB; assay: Acute infection assay, HIV core antigen ELISA (HIV-I IIIB); type: cell-based
[3] = system: uninfected cells
[4] = system: B16F1-murine melanoma; type: in vivo
[5] = system: MAC15A (murine adenocarcinoma colon); type: in vivo, NMR1 mice
[6] = in vitro; conditions: CC50 (Toxicity)
[7] = in vivo; conditions: rat, iv
[8] = system: B16 murine melanoma; assay: Anti-tumour activity of C17 against B16 melanoma (tumour weight inhibition); type: in vivo, female C57/black mice
[9] = mice, preliminary data
[10] = in vivo; conditions: mouse, iv
[11] = In vitro anti-tumour activity; type: cell-based; conditions: compound appears to require activation in the liver
[12] = system: HIV-1 infection; assay: Pilot study of C17 in patients with HIV-1 infection and HIV-related Kaposi's sarcoma; type: in vivo, humans; set-up: CD4 ABS / CD8 ABS: unit not given here
[13] = rats, preliminary data
[14] = system: M5076-reticulum cell sarcoma; assay: Anti-tumour activity against M5076 solid tumour (tumour weight inhibition); type: in vivo, murine
Protocol: The in vivo anti-tumour responses of the compound according to the invention were assessed against the ascitic tumours, MAC15A murine colon adenocarcinoma and various solid tumour models. The MAC15A ascites tumour cells were transplanted into male NMR1 mice by ip innoculation at a cell density of 1 x 10^5 cells in 200µl buffer (Table I). The solid tumour models included the MAC13 and MAC16 murine colon adenocarcinomas, the B16 F1 murine melanoma and the M5076 reticulum cell sarcoma.
Treatment commenced 3 days after ip transplant or, in the case of solid tumours such as MAC13 and MAC16, treatment commenced when average tumour volumes reached 40mm^3.
The animals were located in both cases into groups of 5 to 8 animals.
The animals were sacrificed after 12 days or when tumours ulcerated, tumour volume exceeded 1000mm^3 or loss of body weight exceeded 50%.
Except where otherwise stated, the compound used was dissolved in DMSO and diluted in sterile distilled water, at appropriate concentrations before administration in a solvent volume of 200µl. Anti-tumour responses were obtained by comparing the median survival times or tumour growth inhibition against solvent controls.
% Tumour Weight Inhibition:-

[15] = Against HIV-I IIIB, single determinations, read-out: IC50 (Antiviral)
[16] = read-out: CC50 (Toxicity), listed under Against HIV-I IIIB, single determinations
[17] = Against HIV-I IIIB, average of the lines above, read-out: IC50 (Antiviral), Average
[18] = 100mg kg^-1 ip per day, schedule days 1,2,3,4,5, median, T-test group, C-solvent control, 5 animals per group
[19] = read-out: CC50 (Toxicity), Average, listed under Against HIV-I IIIB, average of the lines above
[20] = day 7, MTD by 5 consecutive daily intravenous injections
[21] = control compounds in infected cells

SMILES: Cc1cn([C@H]2C[C@H](N=[N+]=[N-])[C@@H](CO)O2)c(=O)[nH]c1=O [AZT]
- IC50 [1]: 10 nM and 20 nM

SMILES: NC(=O)c1cc([N+](=O)[O-])c(Cl)c([N+](=O)[O-])c1Cl [C2]
- IC50 [2, 15]: 2 µM
- CC50 [3, 16]: 70 µM

SMILES: O=C(O)c1cc([N+](=O)[O-])c(Cl)c([N+](=O)[O-])c1 [C4, 4-chloro-3,5-dinitrobenzoic acid]
- IC50 [2, 17]: 35 µM
- IC50 [2, 15]: 40 µM and 30 µM
- % Tumour Weight Inhibition ([4]; 50 mg/kg per day ip, days 1,5, 12 days after sc transplant, corn oil): 10%
- % Tumour Weight Inhibition ([4]; 75 mg/kg per day ip, days 1,5, 12 days after sc transplant, corn oil): 41%
- % Tumour Weight Inhibition ([4]; 100 mg/kg per day ip, days 1,5, 12 days after sc transplant, corn oil): 39%
- T/C% [5, 18]: 271%
- CD50 ([3]; Table 7, 50% inhibition of cells by 14C protein hydrolysate uptake): 70µm
- CC50 [3, 19]: 85 µM
- CC50 [3, 16]: 100 µM and 70 µM
- IC50 ([1]; Table 7, 50% reduction in HIV core antigen levels, 72 hours post-infection): 30000 nM

SMILES: NC(=O)c1cc([N+](=O)[O-])c(Cl)c([N+](=O)[O-])c1 [C5]
- IC50 [2, 15]: 5 µM
- CC50 [3, 16]: 50 µM

SMILES: COC(=O)c1cc([N+](=O)[O-])c(Cl)c([N+](=O)[O-])c1 [C6, 4-chloro-3,5-dinitrobenzoic acid methyl ester]
- SI (Selectivity Index) [2]: 12
- % Tumour Weight Inhibition ([4]; mouse, in vivo): 67% and 43%
- CC50 [3]: 60 µM

SMILES: O=C(O)c1cc([N+](=O)[O-])cc([N+](=O)[O-])c1Cl [C7, 2-chloro-3,5-dinitrobenzoic acid]
- IC50 [2, 17]: 22 µM
- CC50 at 72 h ([6]; listed under Against HIV-I IIIB, single determinations): 35 µM
- CC50 [3, 19]: > 175 µM

SMILES: COC(=O)c1cc([N+](=O)[O-])cc([N+](=O)[O-])c1Cl [C8, 2-chloro-3,5-dinitrobenzoic acid methyl ester]
- SI (Selectivity Index) [2]: 5
- CC50 [3]: 60 µM

SMILES: O=C(O)c1ccc(Cl)c([N+](=O)[O-])c1 [C9, 4-chloro-3-nitrobenzoic acid]
- CC50 [3]: > 200 µM

SMILES: O=C(O)c1ccc([N+](=O)[O-])cc1Cl [C10, 2-chloro-4-nitrobenzoic acid]
- CC50 [3]: > 200 µM

SMILES: O=C(O)c1ccc(Cl)c(Cl)c1 [C11, 3,4-dichlorobenzoic acid]
- CC50 [3]: > 200 µM

SMILES: O=C(O)c1cc(Cl)ccc1Cl [C12, 2,5-dichlorobenzoic acid]
- IC50 ([2]; Human immunodeficiency virus 1, IIIB, read-out: IC50 (Antiviral)): > 200 µM
- T/C% ([5]; mouse, in vivo, ip): 171%
- CC50 [3]: > 200 µM

SMILES: O=C(O)c1cc([N+](=O)[O-])ccc1Cl [C17, 2-chloro-5-nitrobenzoic acid]
- CC50 [6]: > 1 mM
- MTD at 5 days [7]: 900 mg/kg/day
- % Tumour Weight Inhibition ([8]; 700 mg/kg per day ip, days 1,2,3,4,5,6, 12 days after sc transplant, 6 animals per group): 62%
- anti-tumour activity in vivo (in words) ([8]; refers to Table 6): considerable anti-tumour activity
- red blood cell count, haemoglobin concentration, macrophage count, white blood cell count (WBC), lymphocyte count and haematocrit (HTC) [9, 20]: increases
- red blood cell count, haemoglobin concentration, macrophage count, white blood cell count (WBC), lymphocyte count and haematocrit (HTC) ([9]; day 14): returned to normal
- MTD at 5 days [10]: 950 mg/kg/day
- anti-tumour activity in vitro (in words) [11]: could not be supported in vitro
- CD4 ABS ([12]; Patient 1, After (day 20), Before (day 1): 0.399, 10mg/kg body weight/day im 5 days weekly): 0.760
- CD8 ABS ([12]; Patient 1, After (day 20), Before (day 1): 0.567, 10mg/kg body weight/day im 5 days weekly): 0.840
- CD4/CD8 ([12]; Patient 1, After (day 20), Before (day 1): 0.70, 10mg/kg body weight/day im 5 days weekly): 0.90
- Lymphocytes ([12]; Patient 1, After (day 20), Before (day 1): 2.1, 10mg/kg body weight/day im 5 days weekly): 2.0 x 10^3mm^-3
- CD4 % ([12]; Patient 1, After (day 20), Before (day 1): 19, 10mg/kg body weight/day im 5 days weekly): 38%
- CD4 ABS ([12]; Patient 2, After (day 14), Before (day 1): 0.360, 10mg/kg body weight/day im 5 days weekly): 0.513
- CD4/CD8 ([12]; Patient 2, After (day 14), Before (day 1): 0.38, 10mg/kg body weight/day im 5 days weekly): 0.59
- CD8 ABS ([12]; Patient 2, After (day 14), Before (day 1): 0.940, 10mg/kg body weight/day im 5 days weekly): 0.874
- Lymphocytes ([12]; Patient 2, After (day 14), Before (day 1): 2.0, 10mg/kg body weight/day im 5 days weekly): 1.9 x 10^3mm^-3
- CD4 % ([12]; Patient 2, After (day 14), Before (day 1): 18, 10mg/kg body weight/day im 5 days weekly): 27%
- CD4 ABS ([12]; Patient 3, After (day 20), Before (day 1): 0.072, 10mg/kg body weight/day im 5 days weekly): 0.187
- CD8 ABS ([12]; Patient 3, After (day 20), Before (day 1): 0.270, 10mg/kg body weight/day im 5 days weekly): 0.682
- CD4/CD8 ([12]; Patient 3, After (day 20), Before (day 1): 0.27, 10mg/kg body weight/day im 5 days weekly): 0.27
- Lymphocytes ([12]; Patient 3, After (day 20), Before (day 1): 0.9, 10mg/kg body weight/day im 5 days weekly): 1.1 x 10^3mm^-3
- CD4 % ([12]; Patient 3, After (day 20), Before (day 1): 8, 10mg/kg body weight/day im 5 days weekly): 17%
- CD4/CD8 ([12]; Patient 4, After (day 14), Before (day 1): 0.08, 10mg/kg body weight/day im 5 days weekly): 0.35
- CD4 ABS ([12]; Patient 4, After (day 14), Before (day 1): 0.108, 10mg/kg body weight/day im 5 days weekly): 0.440
- CD8 ABS ([12]; Patient 4, After (day 14), Before (day 1): 1.350, 10mg/kg body weight/day im 5 days weekly): 1.260
- Lymphocytes ([12]; Patient 4, After (day 14), Before (day 1): 1.8, 10mg/kg body weight/day im 5 days weekly): 2.0 x 10^3mm^-3
- CD4 % ([12]; Patient 4, After (day 14), Before (day 1): 6, 10mg/kg body weight/day im 5 days weekly): 22%
- CD4/CD8 ([12]; Patient 5, After (day 21), Before (day 1): 0.56, 10mg/kg body weight/day im 5 days weekly): 0.66
- CD4 ABS ([12]; Patient 5, After (day 21), Before (day 1): 0.812, 10mg/kg body weight/day im 5 days weekly): 1.023
- CD8 ABS ([12]; Patient 5, After (day 21), Before (day 1): 1.456, 10mg/kg body weight/day im 5 days weekly): 1.550
- Lymphocytes ([12]; Patient 5, After (day 21), Before (day 1): 2.8, 10mg/kg body weight/day im 5 days weekly): 3.1 x 10^3mm^-3
- CD4 % ([12]; Patient 5, After (day 21), Before (day 1): 29, 10mg/kg body weight/day im 5 days weekly): 33%
- CD4/CD8 ([12]; Patient 6 (AIDS-related Kaposi's sarcoma), After (day 34), Before (day 1): 0.31, 10mg/kg body weight/day im 5 days weekly): 0.47
- CD4 ABS ([12]; Patient 6 (AIDS-related Kaposi's sarcoma), After (day 34), Before (day 1): 0.378, 10mg/kg body weight/day im 5 days weekly): 0.437
- CD8 ABS ([12]; Patient 6 (AIDS-related Kaposi's sarcoma), After (day 34), Before (day 1): 1.218, 10mg/kg body weight/day im 5 days weekly): 0.931
- Lymphocytes ([12]; Patient 6 (AIDS-related Kaposi's sarcoma), After (day 34), Before (day 1): 2.1, 10mg/kg body weight/day im 5 days weekly): 1.9 x 10^3mm^-3
- CD4 % ([12]; Patient 6 (AIDS-related Kaposi's sarcoma), After (day 34), Before (day 1): 18, 10mg/kg body weight/day im 5 days weekly): 23%
- sarcoma lesions (in words) ([12]; Patient 6, AIDS-related Kaposi's sarcoma): disappeared
- CD4 counts (in words) ([12]; all 6 patients, about 2 weeks after the beginning of the therapy, 10mg/kg body weight/day im 5 days weekly): showed an increase
- patient general condition (in words) ([12]; including weight gain and a marked decrease in opportunistic infections and diarrhea): clinical improvements
- red blood cell count, haemoglobin concentration, macrophage count, white blood cell count (WBC), lymphocyte count and haematocrit (HTC) [13, 20]: increases
- red blood cell count, haemoglobin concentration, macrophage count, white blood cell count (WBC), lymphocyte count and haematocrit (HTC) ([13]; day 14): returned to normal

SMILES: O=C(O)c1ccc([N+](=O)[O-])cc1[N+](=O)[O-] [C28, 2,4-dinitrobenzoic acid]
- T/C% [5, 18]: 100%

SMILES: O=C(O)c1cc([N+](=O)[O-])cc([N+](=O)[O-])c1 [C29, 3,5-dinitrobenzoic acid]
- T/C% [5, 18]: 100%

SMILES: CC(C)(C)NC(=O)[C@@H]1C[C@@H]2CCCC[C@@H]2CN1C[C@@H](O)[C@H](Cc1ccccc1)NC(=O)[C@H](CC(N)=O)NC(=O)c1ccc2ccccc2n1 [compound 8959]
- IC50 [1, 21]: 1 nM

SMILES: Nc1ccn([C@H]2CC[C@@H](CO)O2)c(=O)n1 [ddC]
- IC50 [1, 21]: 200 nM

SMILES: NC(=O)c1cc([N+](=O)[O-])c(Cl)c([N+](=O)[O-])c1Cl [the amide]
- anti-tumour activity (in words) [14]: without anti-tumour activity
- increase in toxicity ([14]; relative to 2,4-dichloro-3,5-dinitrobenzoic acid): 10 fold
